Data from patent US12153062B2, “Method for estimating physical property of aqueous sample” (Kao Corporation, priority 2018, dated 2024).

Columns and labels:
Format in all cases: physicochemical
[1] = Amount of phase-changing probe 2-EHDG required until phase structure changes (Wm phase to Om phase + W phase); liquid physical property index read from calibration curve
[2] = as above; settings: for Solution physical property index (corresponding HLB) from calibration curve: 100 mmol/kg
Description: (§1) Using the following components, precursor samples and standard samples for preparing calibration curves were prepared, and using any of the following phase-changing probes, an amount of the phase-changing probe required until a phase structure of a standard sample changed was quantified for each of a plurality of surfactants (G). The calibration curves were prepared from the plurality of quantitative values obtained. • Surfactant (G): a plurality of polyoxyethylene lauryl ethers with different average numbers of added moles of the ethylene oxide • Oil component: an isoparaffin with an average number of carbons of 16 (hereinafter, referred to as C16 isoparaffin) • Phase-changing probe: 2-ethylhexyl diglycol or butyldiglycol
(§2) The concentration of surfactant (G) in each precursor sample was 200 mmol/kg (the balance was water).
(§3) The amount of the oil component added per 100 g of each precursor sample was determined to be 4 g by assigning 50 to X in the aforementioned formula (I).
For this standard sample, 2-ethylhexyl diglycol (hereinafter, sometimes also referred to as 2-EHDG) was used as the phase-changing probe, and an amount of the phase-changing probe required until a phase structure of the standard sample changed from a micellar solution phase (Wm phase) to a mixed system of a reversed micellar oil solution phase (Om phase) and a water phase (W phase) was taken as the quantitative value.
(§4) Note that, in either case, the ambient temperature when the phase-changing probe was added to the standard sample was 25° C. Further, in either case, the phase-changing probe was added to the standard sample under the condition of being stirred with a magnetic stirrer.
(§5) Note that the quantitative values and HLB values were entered into spreadsheet software “Excel” (manufactured by Microsoft Corporation) to be processed, thereby obtaining the calibration curves as regression lines (calibration curves 1 and 2). Calibration curves 1 and 2 are shown in Graph A (FIG. 1).
As the oil components, components shown in Table 3 were used; as the phase-changing probe, 2-EHDG was used; and the concentration of surfactant (G) in each precursor sample was 100 mmol/kg. Note that, in this example, the amount of an oil component added per 100 g of each precursor sample was determined to be 2 g by assigning 50 to X in the aforementioned formula (I).
A measurement sample was prepared by adding 2 g of any of the oil components shown in Table 3 per 100 g of the aqueous sample.
2-EHDG as the phase-changing probe was added to the measurement sample under the same conditions as those for preparing the calibration curves, and an amount of the phase-changing probe required until a phase structure changed was quantified.

[3] = Amount of phase-changing probe BDG required until phase structure changes (Om phase + W phase to Wm phase); settings: surfactant 200 mmol/kg; C16 isoparaffin 4 g per 100 g; 25° C.; for calibration curve 2
Description: as §1, §2, §3
On the other hand, in the case where an average number of added moles of the ethylene oxide of surfactant (G) was relatively small (the average number of added moles was 2 to 5), the initial phase structure of the standard sample was a mixed system of a reversed micellar oil solution phase (Om phase) and a water phase (W phase). For this standard sample, butyldiglycol (hereinafter, sometimes also referred to as BDG) was used as the phase-changing probe, and an amount of the phase-changing probe required until a phase structure of the standard sample changed from a mixed system of a reversed micellar oil solution phase (Om phase) and a water phase (W phase) to a micellar solution phase (Wm phase) was taken as the quantitative value.
as §4, §5

[4] = surfactant 100 mmol/kg, solvent BDG 5 mass %, C16 isoparaffin 2 g per 100 g, 25° C., calibration curve 10, no inorganic salt
[5] = surfactant 100 mmol/kg, solvent BDG 5 mass %, C16 isoparaffin 2 g per 100 g, no inorganic salt
[6] = surfactant 100 mmol/kg, oil component C16 isoparaffin 2 g per 100 g, calibration curve 3
[7] = surfactant 100 mmol/kg, oil component Cyclohexane 2 g per 100 g, calibration curve 7
[8] = surfactant 100 mmol/kg, oil component Decane 2 g per 100 g, calibration curve 4
[9] = surfactant 100 mmol/kg, oil component Hexadecane 2 g per 100 g, calibration curve 6
[10] = surfactant 100 mmol/kg, oil component Tetradecane 2 g per 100 g, calibration curve 5
[11] = concentration of polyoxyethylene lauryl ether 5 mmol/kg, C16 isoparaffin 0.1 g per 100 g, calibration curve 8
[12] = concentration of polyoxyethylene lauryl ether 350 mmol/kg, C16 isoparaffin 7 g per 100 g, calibration curve 9
[13] = surfactant 200 mmol/kg, C16 isoparaffin 4 g per 100 g, 25° C., for calibration curve 1

CCCCCCCCCCCC[N+](C)(C)Cc1ccccc1.[Cl-] [Lauryldimethylbenzylammonium chloride]
Quantitative value (g) of phase-changing probe (2-EHDG) [1, 4]: 10.36 g | Solution physical property index (corresponding HLB) from calibration curve 10 [1, 5]: 13.97

CCCCCCCCCCCC[N+](C)(C)C.[Cl-] [Lauryltrimethylammonium chloride]
Quantitative value (g) of phase-changing probe (2-EHDG) [1, 4]: 11.04 g | Solution physical property index (corresponding HLB) from calibration curve 10 [1, 5]: 14.25

CCCCCCCCCCCCCC[N+](C)(C)[O-] [Myristyl dimethylamine oxide]
Quantitative value (g) of phase-changing probe (2-EHDG) [1, 4]: 4.72 g | Solution physical property index (corresponding HLB) from calibration curve 10 [1, 5]: 11.60

CCCCCCCCCCCC[N+](C)(C)CC(O)CS(=O)(=O)[O-] (stereo not drawn) [N-lauryl-N,N-dimethyl-N-(2-hydroxysulfopropyl)ammonium sulfobetaine]
Quantitative value (g) of phase-changing probe (2-EHDG) [1, 4]: 3.60 g | Solution physical property index (corresponding HLB) from calibration curve ([2]; oil component C16 isoparaffin, calibration curve 3): 11.46 | Solution physical property index (corresponding HLB) from calibration curve ([2]; oil component Decane, calibration curve 4): 11.52 | Solution physical property index (corresponding HLB) from calibration curve ([2]; oil component Hexadecane, calibration curve 6): 11.44 | Solution physical property index (corresponding HLB) from calibration curve ([2]; oil component Tetradecane, calibration curve 5): 11.47 | Quantitative value (g) of phase-changing probe (2-EHDG) [2, 6]: 2.36 g | Quantitative value (g) of phase-changing probe (2-EHDG) [2, 7]: 1.15 g | Quantitative value (g) of phase-changing probe (2-EHDG) [2, 8]: 2.36 g | Quantitative value (g) of phase-changing probe (2-EHDG) [2, 9]: 2.78 g | Quantitative value (g) of phase-changing probe (2-EHDG) [2, 10]: 2.66 g

CCCCCCCC[N+](C)(C)Cc1ccccc1.[Cl-] [Octyldimethylbenzylammonium chloride]
Quantitative value (g) of phase-changing probe (2-EHDG) [1, 4]: 9.20 g | Solution physical property index (corresponding HLB) from calibration curve 10 [1, 5]: 13.48

CCCCCCCCCCCCCCCC[N+](C)(C)C.[Cl-] [Palmityltrimethylammonium chloride]
Quantitative value (g) of phase-changing probe (2-EHDG) [1, 4]: 9.12 g | Solution physical property index (corresponding HLB) from calibration curve 10 [1, 5]: 13.45

CCCCC(CC)COC(=O)CC(C(=O)OCC(CC)CCCC)S(=O)(=O)[O-].[Na+] (stereo not drawn) [Sodium di-2-ethylhexylsulfosuccinate]
Quantitative value (g) of phase-changing probe (2-EHDG) [1, 4]: 5.50 g | Solution physical property index (corresponding HLB) from calibration curve 10 [1, 5]: 11.93

Lauryl glucoside
Quantitative value (g) of phase-changing probe (2-EHDG) [1, 4]: 4.44 g | Solution physical property index (corresponding HLB) from calibration curve 10 [1, 5]: 11.48

Sodium polyoxyethylene (2 moles on average) lauryl ether sulfate
Quantitative value (g) of phase-changing probe (2-EHDG) [1, 4]: 17.68 g | Solution physical property index (corresponding HLB) from calibration curve 10 [1, 5]: 17.04

Sodium polyoxyethylene (4 moles on average) lauryl ether sulfate
Quantitative value (g) of phase-changing probe (2-EHDG) [1, 4]: 19.88 g | Solution physical property index (corresponding HLB) from calibration curve 10 [1, 5]: 17.96

polyoxyethylene (6 moles on average) lauryl ether [Polyoxyethylene lauryl ether 6]
Quantitative value (g) of phase-changing probe (2-EHDG) [1, 11]: 0.24 g | Quantitative value (g) of phase-changing probe (2-EHDG) [1, 12]: 2.44 g | Quantitative value (g) of phase-changing probe (2-EHDG) [1, 4]: 4.76 g | Quantitative value (g) of phase-changing probe (2-EHDG) [2, 6]: 2.96 g | Quantitative value (g) of phase-changing probe (2-EHDG) [2, 7]: 1.96 g | Quantitative value (g) of phase-changing probe (2-EHDG) [2, 8]: 2.78 g | Quantitative value (g) of phase-changing probe (2-EHDG) [2, 9]: 3.4 g | Quantitative value (g) of phase-changing probe (2-EHDG) [2, 10]: 3.2 g | Quantitative value (g) of phase-changing probe (2-EHDG) [2, 13]: 1.7 g

polyoxyethylene lauryl ether [Polyoxyethylene lauryl ether 2]
Quantitative value (g) of phase-changing probe (BDG) [3]: 18.57 g

polyoxyethylene lauryl ether [Polyoxyethylene lauryl ether 3]
Quantitative value (g) of phase-changing probe (BDG) [3]: 13.2 g

polyoxyethylene lauryl ether [Polyoxyethylene lauryl ether 4]
Quantitative value (g) of phase-changing probe (2-EHDG) [1, 4]: 1.16 g | Quantitative value (g) of phase-changing probe (BDG) [3]: 7.29 g

polyoxyethylene lauryl ether [Polyoxyethylene lauryl ether 5]
Quantitative value (g) of phase-changing probe (2-EHDG) [1, 4]: 2.12 g | Quantitative value (g) of phase-changing probe (BDG) [3]: 5.5 g

polyoxyethylene lauryl ether [Polyoxyethylene lauryl ether 9]
Quantitative value (g) of phase-changing probe (2-EHDG) [1, 11]: 0.46 g | Quantitative value (g) of phase-changing probe (2-EHDG) [1, 12]: 9.36 g | Quantitative value (g) of phase-changing probe (2-EHDG) [1, 4]: 9.46 g | Quantitative value (g) of phase-changing probe (2-EHDG) [2, 6]: 7.58 g | Quantitative value (g) of phase-changing probe (2-EHDG) [2, 7]: 5.84 g | Quantitative value (g) of phase-changing probe (2-EHDG) [2, 8]: 6.98 g | Quantitative value (g) of phase-changing probe (2-EHDG) [2, 9]: 7.74 g | Quantitative value (g) of phase-changing probe (2-EHDG) [2, 10]: 7.6 g | Quantitative value (g) of phase-changing probe (2-EHDG) [2, 13]: 5.38 g

polyoxyethylene lauryl ether [Polyoxyethylene lauryl ether 12]
Quantitative value (g) of phase-changing probe (2-EHDG) [1, 11]: 0.94 g | Quantitative value (g) of phase-changing probe (2-EHDG) [1, 12]: 11.76 g | Quantitative value (g) of phase-changing probe (2-EHDG) [1, 4]: 12.5 g | Quantitative value (g) of phase-changing probe (2-EHDG) [2, 6]: 10.24 g | Quantitative value (g) of phase-changing probe (2-EHDG) [2, 7]: 8.24 g | Quantitative value (g) of phase-changing probe (2-EHDG) [2, 8]: 9.4 g | Quantitative value (g) of phase-changing probe (2-EHDG) [2, 9]: 10.24 g | Quantitative value (g) of phase-changing probe (2-EHDG) [2, 10]: 10.02 g | Quantitative value (g) of phase-changing probe (2-EHDG) [2, 13]: 7.4 g

polyoxyethylene lauryl ether [Polyoxyethylene lauryl ether 21]
Quantitative value (g) of phase-changing probe (2-EHDG) [1, 11]: 1.28 g | Quantitative value (g) of phase-changing probe (2-EHDG) [2, 13]: 11.92 g
